Test results taken from ChEMBL document CHEMBL1201862, “PubChem BioAssay data set” (2004).
Active and inactive are the calls of the source.

Columns and labels:
[1] = NIH-3T3 fibroblast cytotoxicity, dose response, cytotoxicity control, cell-based, fluorescence, Alamar Blue, secondary assay (AID 2327); format: functional;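 further: NIH-3T3 mouse fibroblasts cultured with fluconazole at 8 µg/mL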
[2] = system: Streptococcus sp. 'group A'; assay: growth inhibition of control SK(-) GAS strain, dose response, counter-screen for streptokinase expression inhibitor project, luminescence, kanamycin, BacTiterGlo, confirmation (AID 1900); format: functional, organism-based
[3] = C. albicans growth with fluconazole, confirmation, fluorescence, retest (AID 2467); format: functional, cell-based
Streptococcus = assay: Group A Streptococcus viability loss, dose response, counter-screen for streptokinase expression inhibitor project, luminescence, BacTiterGlo (AID 1915); format: functional, organism-based;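 further: potency for reduction of bacterial viability or growth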
[4] = target: T1, Short transient receptor potential channel 4 (Mus musculus, UniProt Q9QUQ5); assay: mouse TRPC4 channel activators, dose response, cell-based, HEK293 TRPC4/mu-opioid, Fluo-4 calcium (AID 434937); format: functional
T1 sequence (Q9QUQ5 whole entry): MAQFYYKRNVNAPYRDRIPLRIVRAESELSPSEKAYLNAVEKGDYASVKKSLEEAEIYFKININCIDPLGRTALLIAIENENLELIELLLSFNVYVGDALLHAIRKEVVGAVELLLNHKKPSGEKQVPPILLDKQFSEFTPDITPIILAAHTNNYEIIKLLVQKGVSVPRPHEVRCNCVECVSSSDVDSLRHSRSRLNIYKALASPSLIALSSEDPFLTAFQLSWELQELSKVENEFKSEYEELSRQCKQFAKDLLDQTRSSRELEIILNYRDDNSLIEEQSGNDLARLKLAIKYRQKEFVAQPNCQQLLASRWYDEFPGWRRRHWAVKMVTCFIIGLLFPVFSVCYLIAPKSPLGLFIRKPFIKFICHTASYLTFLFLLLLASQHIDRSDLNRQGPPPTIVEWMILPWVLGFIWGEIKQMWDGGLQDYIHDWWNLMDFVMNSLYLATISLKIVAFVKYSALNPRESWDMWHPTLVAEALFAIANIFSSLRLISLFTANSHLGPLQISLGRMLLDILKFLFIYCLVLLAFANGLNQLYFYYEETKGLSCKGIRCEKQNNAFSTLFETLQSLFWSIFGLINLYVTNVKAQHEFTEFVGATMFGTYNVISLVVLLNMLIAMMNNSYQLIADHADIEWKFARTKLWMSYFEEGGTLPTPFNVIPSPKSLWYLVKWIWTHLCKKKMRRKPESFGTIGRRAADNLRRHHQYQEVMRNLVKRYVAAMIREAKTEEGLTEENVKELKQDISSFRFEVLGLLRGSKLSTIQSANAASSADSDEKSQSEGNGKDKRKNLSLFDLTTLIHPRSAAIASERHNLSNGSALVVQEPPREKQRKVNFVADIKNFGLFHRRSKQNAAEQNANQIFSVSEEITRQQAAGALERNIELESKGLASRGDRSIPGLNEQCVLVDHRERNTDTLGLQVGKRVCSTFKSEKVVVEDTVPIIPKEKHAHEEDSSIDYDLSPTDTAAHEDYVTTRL

[5] = A cytotoxicity screen of small molecule inhibitors of the PhoP region in Salmonella typhi identified in the primary screen. [Related pubchem assays: 1850, 1864, 1985 ]; format: functional
Cytochrome P450 2D6 = Cytochrome P450 2D6 (Homo sapiens, UniProt P10635);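 further: CYP2D6 member of a cytochrome P450 panel assay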
Cytochrome P450 2D6, sequence (P10635 whole entry): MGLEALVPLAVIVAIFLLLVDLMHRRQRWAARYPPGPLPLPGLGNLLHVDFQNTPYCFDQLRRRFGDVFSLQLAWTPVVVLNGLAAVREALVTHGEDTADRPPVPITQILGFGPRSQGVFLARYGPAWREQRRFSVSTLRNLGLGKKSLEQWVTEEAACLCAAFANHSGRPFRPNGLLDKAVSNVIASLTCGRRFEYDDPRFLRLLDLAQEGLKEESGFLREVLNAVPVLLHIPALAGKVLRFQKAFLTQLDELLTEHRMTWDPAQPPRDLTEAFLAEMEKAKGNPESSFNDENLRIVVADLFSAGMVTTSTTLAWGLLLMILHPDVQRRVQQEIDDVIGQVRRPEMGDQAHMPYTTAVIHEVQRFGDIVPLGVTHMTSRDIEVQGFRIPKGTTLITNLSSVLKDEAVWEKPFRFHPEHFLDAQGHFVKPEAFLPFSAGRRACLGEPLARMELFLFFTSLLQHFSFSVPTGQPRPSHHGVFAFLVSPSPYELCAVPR

[6] = cytotoxicity in HPDE-C7 cells, cell-based, fluorescence, HTS (AID 430); format: functional; conditions: Homo sapiens
[7] = cytotoxicity in KRAS-transformed pancreatic duct cells, primary screen, cell-based, fluorescence, HTS (AID 431); format: functional; conditions: Homo sapiens;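 further: cell line used: HPDE-C7K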
[8] = target: T2, Heat shock factor protein 1 (Mus musculus, UniProt P38532); assay: HSF1 potentiators in luciferase reporter cells, confirmation, cell-based, NIH3T3, luminescence, dose retest (AID 435004); format: functional;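 further: stress induced by proteasome inhibitor MG132 added 30 min after compound; luciferase reporter driven by HSF1 response element in NIH3T3 cells; actives raise luminescence as potentiators of the MG132 stress response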
T2 sequence (P38532 whole entry): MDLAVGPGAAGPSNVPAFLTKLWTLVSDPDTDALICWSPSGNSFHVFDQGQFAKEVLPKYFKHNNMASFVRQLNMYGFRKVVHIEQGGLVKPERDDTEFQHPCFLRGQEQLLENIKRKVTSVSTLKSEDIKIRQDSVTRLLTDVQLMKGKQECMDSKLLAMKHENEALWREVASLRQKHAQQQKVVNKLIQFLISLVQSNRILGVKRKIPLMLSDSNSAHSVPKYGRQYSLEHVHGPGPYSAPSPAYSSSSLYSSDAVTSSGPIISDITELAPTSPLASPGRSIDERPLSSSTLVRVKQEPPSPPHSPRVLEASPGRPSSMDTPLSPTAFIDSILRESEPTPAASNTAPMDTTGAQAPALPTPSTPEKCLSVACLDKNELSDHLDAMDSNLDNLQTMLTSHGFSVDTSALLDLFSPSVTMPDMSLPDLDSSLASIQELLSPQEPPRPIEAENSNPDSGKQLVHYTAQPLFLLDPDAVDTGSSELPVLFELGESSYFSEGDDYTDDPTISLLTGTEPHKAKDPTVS

Estrogen receptor = target: T3, Estrogen receptor (Homo sapiens, UniProt P03372);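 further: potency for inhibiting coactivator peptide recruitment to the receptor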
T3 sequence (P03372 whole entry): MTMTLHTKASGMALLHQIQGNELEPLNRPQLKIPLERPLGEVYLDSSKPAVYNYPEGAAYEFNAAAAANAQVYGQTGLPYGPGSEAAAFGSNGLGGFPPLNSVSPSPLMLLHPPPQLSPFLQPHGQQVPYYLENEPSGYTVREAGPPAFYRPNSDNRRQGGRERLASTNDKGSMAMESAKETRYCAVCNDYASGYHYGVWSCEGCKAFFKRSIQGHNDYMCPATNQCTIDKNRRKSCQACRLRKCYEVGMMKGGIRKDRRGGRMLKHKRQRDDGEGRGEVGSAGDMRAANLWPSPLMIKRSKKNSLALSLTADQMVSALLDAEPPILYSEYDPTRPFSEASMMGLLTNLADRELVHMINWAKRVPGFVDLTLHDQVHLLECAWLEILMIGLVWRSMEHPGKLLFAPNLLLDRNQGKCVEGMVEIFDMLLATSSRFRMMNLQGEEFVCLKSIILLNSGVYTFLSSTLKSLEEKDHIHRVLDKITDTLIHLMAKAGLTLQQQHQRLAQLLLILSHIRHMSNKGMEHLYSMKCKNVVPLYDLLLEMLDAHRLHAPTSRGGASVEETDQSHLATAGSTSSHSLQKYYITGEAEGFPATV

H9c2 = assay: cells; format: functional, cell-based; conditions: Rattus norvegicus, H9c2, Myocardium;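 further: confirmatory concentration-response retest of ultra-high-throughput screening hits for modulation of myocardial damage; cell death induced by hydrogen peroxide oxidative stress; compound pretreatment for 60 min then peroxide exposure for 2 h; potency is for protecting the cells against peroxide damage rather than for killing them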
[9] = target: T4, Endoribonuclease toxin MazF (Escherichia coli K-12, UniProt P0AE70); assay: fluorescent RNA oligo signal without MazF, dose response, counter-screen for MazEF activator project, biochemical, fluorescence, single-stranded RNase substrate (AID 588502); format: functional
T4 sequence (P0AE70 whole entry): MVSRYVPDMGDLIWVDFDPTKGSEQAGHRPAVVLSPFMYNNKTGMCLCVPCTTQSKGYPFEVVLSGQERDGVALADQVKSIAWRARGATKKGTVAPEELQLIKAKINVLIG

INS1 = assay: beta cell apoptosis inhibitors, cytokine rescue, dose response, luminescence, retest (AID 449756); format: functional, cell-based; conditions: Rattus norvegicus;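 further: cell death triggered by IL-1 beta plus TNF-alpha plus IFN-gamma mixture; protective hits raise ATP signal compared with cytokine alone wells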
[10] = target: T4, Endoribonuclease toxin MazF; assay: MazF toxin RNase activators, dose response, biochemical, fluorescence, single-stranded RNA substrate, uHTS hits (AID 588481); format: functional
[11] = NIH:OVCAR-3 ovarian cancer cell cytotoxicity, dose response, PAX8 inhibitor project, plate reader, dry powder samples (AID 743044); format: functional, cell-based
Paired box protein Pax-8 = Paired box protein Pax-8 (Homo sapiens, UniProt Q06710); assay: inhibitors of PAX8-driven TPO luciferase reporter, dose response, RMG-I cells, cherry-pick (AID 687027); format: functional, cell-based;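 further: luciferase reporter driven by Pax8 target thyroperoxidase promoter measured by SteadyGlo luminescence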
Paired box protein Pax-8, sequence (Q06710 whole entry): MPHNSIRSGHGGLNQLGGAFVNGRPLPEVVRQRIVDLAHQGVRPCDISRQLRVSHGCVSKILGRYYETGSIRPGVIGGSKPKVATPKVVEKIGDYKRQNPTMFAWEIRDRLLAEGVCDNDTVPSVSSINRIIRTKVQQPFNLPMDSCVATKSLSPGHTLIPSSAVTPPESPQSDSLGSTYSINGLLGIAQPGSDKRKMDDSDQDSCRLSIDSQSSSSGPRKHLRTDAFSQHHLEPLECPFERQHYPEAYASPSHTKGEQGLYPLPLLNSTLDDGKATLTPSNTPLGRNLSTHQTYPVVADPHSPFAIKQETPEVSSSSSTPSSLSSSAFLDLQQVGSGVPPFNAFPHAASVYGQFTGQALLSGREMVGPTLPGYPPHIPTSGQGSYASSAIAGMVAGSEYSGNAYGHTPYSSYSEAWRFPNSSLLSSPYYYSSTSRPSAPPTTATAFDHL

[12] = HepG2 cell cytotoxicity, dose response, cytotoxicity control, plate reader, dry powder samples (AID 1159569); format: functional, cell-based;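 further: inhibitor potency with signal falling toward the positive control level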
[13] = P. falciparum Dd2 growth inhibitors, dose response, SYBR Green, cherry-picked samples (AID 1159567); format: functional, cell-based
[14] = P. falciparum Dd2 growth inhibitors, dose response, SYBR Green, dry powder samples (AID 1159566); format: functional, cell-based;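 further: potency for growth inhibition with lower SYBR green DNA signal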
[15] = P. falciparum 3D7-ScDHODH growth inhibitors, dose response, SYBR Green, dry powder samples (AID 1159570); format: functional, cell-based;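 further: parasite growth measured after 72 hours of compound exposure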
[16] = P. falciparum ATP4 D1247Y mutant growth inhibitors, dose response, NITD609-resistant line, SYBR Green, dry powder (AID 1159571); format: functional, cell-based;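 further: parasites synchronized at ring stage by sorbitol before testing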
[17] = cytotoxicity in HEK-293T cells, dose response, cytotoxicity control for BCR NF-kB inhibitor project, luminescence, B-cell screen hits (AID 489021); format: functional, cell-based;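 further: HEK-293T cells carrying an NF-kB luciferase reporter; cells exposed to compound for about 14 hours before viability readout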
Cytochrome P450 3A4 = Cytochrome P450 3A4 (Homo sapiens, UniProt P08684); conditions: Potency;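 further: confirmatory qHTS run detecting inhibitors and substrates of CYP3A4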
Cytochrome P450 3A4, sequence (P08684 whole entry): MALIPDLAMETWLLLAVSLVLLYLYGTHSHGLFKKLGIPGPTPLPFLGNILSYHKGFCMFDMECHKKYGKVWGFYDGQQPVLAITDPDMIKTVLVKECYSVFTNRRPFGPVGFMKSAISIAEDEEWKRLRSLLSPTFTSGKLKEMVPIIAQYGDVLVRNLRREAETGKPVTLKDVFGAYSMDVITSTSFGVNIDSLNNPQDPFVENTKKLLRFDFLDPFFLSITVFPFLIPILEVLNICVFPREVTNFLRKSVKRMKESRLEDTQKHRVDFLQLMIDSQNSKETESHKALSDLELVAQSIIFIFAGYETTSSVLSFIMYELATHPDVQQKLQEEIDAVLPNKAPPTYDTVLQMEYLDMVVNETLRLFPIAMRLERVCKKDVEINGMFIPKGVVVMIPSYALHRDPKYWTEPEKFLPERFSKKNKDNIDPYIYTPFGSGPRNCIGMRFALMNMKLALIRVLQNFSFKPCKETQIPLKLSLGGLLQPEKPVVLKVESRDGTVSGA

O=C(CCc1ccccc1)NNC(=S)NC(=O)c1ccc(Cl)cc1
EC50 [1]: > 150 µM (inconclusive)
EC50 [2]: 0.335 µM (active)
EC50 [3]: 2.16 µM (active)
EC50 (Streptococcus): 6.45 µM (active)
EC50 [4]: 5.31 µM (active)

COc1ccc(CCN(C(=O)C(F)(F)F)C(C(=O)NC2CCCC2)c2cccs2)cc1 (stereo unspecified)
EC50 [5]: > 50 µM (active)
AC50 (Cytochrome P450 2D6): 25.1 µM (inconclusive)

O=C(Oc1cccc2cccnc12)c1ccc(Br)o1
EC50 [6]: 13.9 µM (active)
EC50 [7]: > 20 µM (not active)
EC50 [8]: > 260 µM (inactive)

COc1nnc(-c2ccc(C)c(S(=O)(=O)NCCO)c2)c2ccccc12
IC50 (Estrogen receptor): > 50 µM (not active)
IC50 (H9c2): > 79 µM (inactive)

COc1cccc(-c2nc(NCc3ccco3)c3ccccc3n2)c1O
EC50 [6]: > 20 µM (not active)
EC50 [7]: 1.11 µM (active)

Cc1ccc(C2=CC(c3ccc(N(C)C)cc3)n3nnnc3N2)cc1 (stereo unspecified)
EC50 [9]: > 99 µM (inactive)
AC50 (INS1): 6.88 µM (active)
EC50 [6]: 0.09 µM (active)
EC50 [7]: 0.21 µM (active)
EC50 [10]: > 99 µM (inactive)

COc1ccc(C(=O)C2CCCN(Cc3ccc(Sc4nncn4C)o3)C2)cc1F (stereo unspecified)
EC50 [4]: 3.35 µM (active)

C[C@@H]1CCCCO[C@@H](CN(C)Cc2ccc(Cl)c(Cl)c2)[C@H](C)CN([C@@H](C)CO)C(=O)c2cc(NC(=O)Nc3ccc(C(F)(F)F)cc3)ccc2O1
AC50 [11]: 29.6 µM (active)
AC50 (Paired box protein Pax-8): 5.08 µM (active)

C[C@@H]1CCCCO[C@@H](CN(C)S(=O)(=O)c2ccc(Cl)cc2)[C@H](C)CN([C@@H](C)CO)C(=O)c2cc(N(C)C)ccc2O1
AC50 [11]: 28.3 µM (active)
AC50 (Paired box protein Pax-8): 3.28 µM (active)

C[C@H](CO)N1C[C@H](C)[C@@H](CN(C)C(=O)C2CCCCC2)Oc2ncc(/C=C/c3ccccc3)cc2C1=O
AC50 [12]: 50.2 µM (active)
AC50 [13]: 0.658 µM (active)
AC50 [14]: 0.35 µM (active)
AC50 [15]: 0.608 µM (active)
AC50 [16]: 0.451 µM (active)

C[C@H]1CN([C@@H](C)CO)C(=O)c2c(c3ccccc3n2C)-c2ccccc2CO[C@H]1CN(C)C(=O)c1cc(Cl)cc(Cl)c1
AC50 [12]: 27.8 µM (active)
AC50 [13]: 2.14 µM (active)
AC50 [14]: 1.48 µM (active)
AC50 [15]: 2.36 µM (active)
AC50 [16]: 1.58 µM (active)

COc1ccc(C#Cc2ccc3c(c2)[C@H]2[C@H](CCN2Cc2ccncc2)[C@H](CO)N3)cc1
AC50 [12]: 65.7 µM (active)
AC50 [13]: 1.19 µM (active)
AC50 [14]: 0.922 µM (active)
AC50 [15]: 1.18 µM (active)
AC50 [16]: 1.11 µM (active)

C=C(C)[C@@H]1CC[C@]2(C(=O)O)CC[C@]3(C)[C@H](CC[C@@H]4[C@@]5(C)CCC(=O)C(C)(C)[C@@H]5CC[C@]43C)[C@@H]12 [BETUNOLIC ACID]
IC50 [17]: > 80 µM (inactive)
EC50 [2]: 1.68 µM (active)
EC50 (Streptococcus): 2.88 µM (active)

COc1cc(-c2cc(=O)c3c(O)c(OC)c(OC)c(OC)c3o2)cc(OC)c1OC [GARDENIN]
IC50 [17]: > 80 µM (inactive)
AC50 (Cytochrome P450 3A4): 3.16 µM (inconclusive)

CCOc1ccc2ccccc2c1C(=O)N[C@@H]1C(=O)N2[C@@H]1SC(C)(C)[C@@H]2C(=O)O [NAFCILLIN SODIUM]
EC50 [5]: > 50 µM (active)
IC50 (H9c2): > 79 µM (inactive)
